The structures appear in SMILES notation.

The first experiment has as its system Ctenocephalides felis. The experiment in a line: Efficacy of compounds against fleas following ingestion (membrane feeding on treated bovine blood). The class given is in vivo. As to conditions: 10 adult Ctenocephalides felis feeding on treated bovine blood; assessment at 72 hours after application vs untreated controls. How it is done: A cylindrical test container was filled with 10 adult Ctenocephalides felis. A cylindrical well was closed on one end with a self-sealing flexible film and placed on top of the test container in such a position that the fleas could pierce the film and feed on the contents of the cylinder. The test compound solution was then pipetted into bovine blood and added to the well. The container part with the Ctenocephalides felis was held at 20-22° C. and 40-60% relative humidity while the well part containing the treated blood was held at 37° C. and 40-60% relative humidity. Assessment was performed at 72 hours after application in comparison with untreated controls. […] In this regard, the efficacy of the compounds of the invention having at least one carbonyl group in Ring D against fleas was compared with the efficacy of corresponding compounds that are not substituted with a carbonyl group in Ring D using the method of Example 19.
In general, EC50 refers to the concentration needed to bring the measured effect to its halfway point. A higher EC50 goes with a need for much substance. In turn, `Cc1cc(C2=NOC(c3cc(Cl)cc(C(F)(F)F)c3)(C(F)(F)F)C2)ccc1C(=O)N1CC(=O)N(CCC(F)(F)F)C1` (stereo not drawn) [Compound 80, 1-[(4-[5-[3-chloro-5-(trifluoromethyl)phenyl]-5-(trifluoromethyl)-4,5-dihydro-1,2-oxazol-3-yl]-2-methylphenyl)carbonyl]-3-(3,3,3-trifluoropropyl)imidazolidin-4-one] showed an EC50 of at most 0.1 µg/mL. For the molecule `Cc1cc(C2=NOC(c3cc(Cl)cc(C(F)(F)F)c3)(C(F)(F)F)C2)ccc1C(=O)N1CCN(CCC(F)(F)F)C1` (stereo not drawn) [Compound 100], the EC50 was at most 10 µg/mL.

`Cc1cc(C2=NOC(c3cc(Cl)c(F)c(Cl)c3)(C(F)(F)F)C2)ccc1C(=O)N1CC(=O)N(CCC(F)(F)F)C1` (stereo not drawn) [Compound 115, 1-([4-[5-(3,5-dichloro-4-fluorophenyl)-5-(trifluoromethyl)-4,5-dihydro-1,2-oxazol-3-yl]-2-methylphenyl]carbonyl)-3-(3,3,3-trifluoropropyl)imidazolidin-4-one] registered an EC50 of at most 0.1 µg/mL. The same measure, in the same setting: then `Cc1cc(C2=NOC(c3cc(Cl)cc(C(F)(F)F)c3)(C(F)(F)F)C2)ccc1C(=O)NN1CCCN(CC(F)(F)F)C1=O` (stereo not drawn) [Compound 70], with at most 1 µg/mL; and `O=C1CN(C(=O)c2ccc(C3=NOC(c4cc(Cl)cc(C(F)(F)F)c4)(C(F)(F)F)C3)cc2CC(F)(F)F)CN1CCC(F)(F)F` (stereo not drawn) [Compound 99, 1-[(4-[5-[3-chloro-5-(trifluoromethyl)phenyl]-5-(trifluoromethyl)-4,5-dihydro-1,2-oxazol-3-yl]-2-(2,2,2-trifluoroethyl)phenyl)carbonyl]-3-(3,3,3-trifluoropropyl)imidazolidin-4-one], with at most 1 µg/mL. Same read-out and setting: for `Cc1cc(C2=NOC(c3cc(Cl)cc(C(F)(F)F)c3)(C(F)(F)F)C2)ccc1C(=O)N1CC(=O)N(CS(C)(=O)=O)C1` (stereo not drawn) [Compound 114, 1-[(4-[5-[3-Chloro-5-(trifluoromethyl)phenyl]-5-(trifluoromethyl)-4,5-dihydro-1,2-oxazol-3-yl]-2-methylphenyl)carbonyl]-3-(methanesulfonylmethyl)imidazolidin-4-one] the value was at most 10 µg/mL; for `Cc1cc(C2=NOC(c3cc(Cl)cc(Cl)c3)(C(F)(F)F)C2)ccc1C(=O)NN1CCN(CC(F)(F)F)C1=O` (stereo not drawn) [Compound 67, 4-[5-(3,5-dichlorophenyl)-5-(trifluoromethyl)-4,5-dihydro-1,2-oxazol-3-yl]-2-methyl-N-[2-oxo-3-(2,2,2-trifluoroethyl)imidazolidin-1-yl]benzamide], at most 1 µg/mL; for `O=C(NN1CCCN(CC(F)(F)F)C1=O)c1ccc(C2=NOC(c3cc(Cl)cc(Cl)c3)(C(F)(F)F)C2)cc1C(F)(F)F` (stereo not drawn) [Compound 91, 4-[5-(3,5-dichlorophenyl)-5-(trifluoromethyl)-4,5-dihydro-1,2-oxazol-3-yl]-N-[2-oxo-3-(2,2,2-trifluoroethyl)-1,3-diazinan-1-yl]-2-(trifluoromethyl)benzamide], at most 1 µg/mL.

`O=C(NN1CCCN(CC(F)(F)F)C1=O)c1ccc(C2=NOC(c3cc(C(F)(F)F)cc(C(F)(F)F)c3)(C(F)(F)F)C2)cc1C(F)(F)F` (stereo not drawn) [Compound 90, 4-[5-[3,5-bis(trifluoromethyl)phenyl]-5-(trifluoromethyl)-4,5-dihydro-1,2-oxazol-3-yl]-N-[2-oxo-3-(2,2,2-trifluoroethyl)-1,3-diazinan-1-yl]-2-(trifluoromethyl)benzamide] came in with an EC50 of at most 1 µg/mL. Same read-out and setting: then `O=C(NN1CCCN(CC(F)(F)F)C1=O)c1ccc(C2=NOC(c3cc(Cl)cc(C(F)(F)F)c3)(C(F)(F)F)C2)cc1C(F)(F)F` (stereo not drawn) [Compound 97, 4-[5-[3-chloro-5-(trifluoromethyl)phenyl]-5-(trifluoromethyl)-4,5-dihydro-1,2-oxazol-3-yl]-N-[2-oxo-3-(2,2,2-trifluoroethyl)-1,3-diazinan-1-yl]-2-(trifluoromethyl)benzamide], with at most 1 µg/mL; and `CCN1CCN(C(=O)c2ccc(C3=NOC(c4cc(Cl)cc(Cl)c4)(C(F)(F)F)C3)cc2C)C1=O` (stereo not drawn) [Compound 54], with at most 10 µg/mL; and `O=C(c1ccc(C2=NOC(c3cc(Cl)cc(Cl)c3)(C(F)(F)F)C2)cc1C(F)(F)F)N1CC(=O)N(CC(F)(F)F)C(=O)C1` (stereo not drawn) [Compound 92, 4-([4-[5-(3,5-dichlorophenyl)-5-(trifluoromethyl)-4,5-dihydro-1,2-oxazol-3-yl]-2-(trifluoromethyl)phenyl]carbonyl)-1-(2,2,2-trifluoroethyl)piperazine-2,6-dione], with at most 10 µg/mL. The molecule `O=C1CN(C(=O)c2ccc(C3=NOC(c4cc(Cl)cc(C(F)(F)F)c4)(C(F)(F)F)C3)cc2C(F)(F)F)CN1CCC(F)(F)F` (stereo not drawn) [Compound 98, 1-[(4-[5-[3-chloro-5-(trifluoromethyl)phenyl]-5-(trifluoromethyl)-4,5-dihydro-1,2-oxazol-3-yl]-2-(trifluoromethyl)phenyl)carbonyl]-3-(3,3,3-trifluoropropyl)imidazolidin-4-one] showed an EC50 of at most 1 µg/mL. Same read-out and setting: for `O=C1CN(C(=O)c2ccc(C3=NOC(c4cc(Cl)cc(C(F)(F)F)c4)(C(F)(F)F)C3)c3ccccc23)CN1CCC(F)(F)F` (stereo not drawn) [Compound 112, 1-[(4-[5-[3-chloro-5-(trifluoromethyl)phenyl]-5-(trifluoromethyl)-4,5-dihydro-1,2-oxazol-3-yl]naphthalen-1-yl)carbonyl]-3-(3,3,3-trifluoropropyl)imidazolidin-4-one] the value was at most 0.1 µg/mL; for `O=C1CN(C(=O)c2ccc(C3=NOC(c4cc(Cl)cc(Cl)c4)(C(F)(F)F)C3)cc2C(F)(F)F)CN1CC(F)(F)F` (stereo not drawn) [Compound 93, 1-([4-[5-(3,5-dichlorophenyl)-5-(trifluoromethyl)-4,5-dihydro-1,2-oxazol-3-yl]-2-(trifluoromethyl)phenyl]carbonyl)-3-(2,2,2-trifluoroethyl)imidazolidin-4-one], at most 1 µg/mL. The same measure, in the same setting: for `O=C1CN(C(=O)c2ccc(C3=NOC(c4cc(Cl)cc(C(F)(F)F)c4)(C(F)(F)F)C3)cc2C(F)(F)F)CN1CC(F)(F)F` (stereo not drawn) [Compound 96, 1-[(4-[5-[3-chloro-5-(trifluoromethyl)phenyl]-5-(trifluoromethyl)-4,5-dihydro-1,2-oxazol-3-yl]-2-(trifluoromethyl)phenyl)carbonyl]-3-(2,2,2-trifluoroethyl)imidazolidin-4-one] the value was at most 1 µg/mL; for `Cc1cc(C2=NOC(c3cc(Cl)cc(C(F)(F)F)c3)(C(F)(F)F)C2)ccc1C(=O)N1CC(=O)N(CC(F)(F)F)C1` (stereo not drawn) [Compound 71, 1-[(4-[5-[3-chloro-5-(trifluoromethyl)phenyl]-5-(trifluoromethyl)-4,5-dihydro-1,2-oxazol-3-yl]-2-methylphenyl)carbonyl]-3-(2,2,2-trifluoroethyl)imidazolidin-4-one], at most 0.1 µg/mL.

Turning to `CCCN1C(=O)CN(C(=O)c2ccc(C3=NOC(c4cc(Cl)cc(C(F)(F)F)c4)(C(F)(F)F)C3)cc2C(F)(F)F)CC1=O` (stereo not drawn) [Compound 95, 4-[(4-[5-[3-chloro-5-(trifluoromethyl)phenyl]-5-(trifluoromethyl)-4,5-dihydro-1,2-oxazol-3-yl]-2-(trifluoromethyl)phenyl)carbonyl]-1-propylpiperazine-2,6-dione], the EC50 is at most 10 µg/mL.

Staying with this experiment, now noted: efficacy against fleas, method of Example 19; compounds with vs without carbonyl group in Ring D.
Take `Cc1cc(C2=NOC(c3cc(Cl)cc(Cl)c3)(C(F)(F)F)C2)ccc1C(=O)N1CCNCC1` (stereo not drawn) [reference compound]: the “EC50 (ppm)” value was 1-10 ppm. Turning to `Cc1cc(C2=NOC(c3cc(Cl)cc(C(F)(F)F)c3)(C(F)(F)F)C2)ccc1C(=O)N1CC(=O)N(CCC(F)(F)F)C1` (stereo not drawn) [drawing 155], the “EC50 (ppm)” value was under 0.1 ppm. In the case of `Cc1cc(C2=NOC(c3cc(Cl)cc(Cl)c3)(C(F)(F)F)C2)ccc1C(=O)N1CC(=O)N(CC(F)(F)F)C(=O)C1` (stereo not drawn), the “EC50 (ppm)” value was under 0.1 ppm. Still for that read-out and setting: for `Cc1cc(C2=NOC(c3cc(Cl)cc(C(F)(F)F)c3)(C(F)(F)F)C2)ccc1C(=O)N1CCN(CCC(F)(F)F)C1` (stereo not drawn) [drawing 156, reference compound] the value was 1-10 ppm. On the same count and under the same terms, for `Cc1cc(C2=NOC(c3cc(Cl)cc(Cl)c3)(C(F)(F)F)C2)ccc1C(=O)N1CCN(CC(F)(F)F)CC1` (stereo not drawn) [reference compound] the value was 10-20 ppm; for `Cc1cc(C2=NOC(c3cc(Cl)cc(Cl)c3)(C(F)(F)F)C2)ccc1C(=O)N1CC(=O)NC(=O)C1` (stereo not drawn), under 0.1 ppm.
